Test results reported in patent US20230059136A1, “THE COMPOUNDS AND COMPOSITIONS FOR TREATING CONDITIONS ASSOCIATED WITH NLRP ACTIVITY” (Novartis AG, priority 2018, published 2023).

test system: IL-1β production in PMA-differentiated THP-1 cells; assay: IL-1β production in PMA-differentiated THP-1 cells stimulated with gramicidin (hTHP-1 assay containing 2% fetal bovine serum); assay type: cell-based, human; settings: Homo sapiens, THP-1, Table B1; 2% fetal bovine serum; cells printed as numeric bound; read-out: hTHP-1 IC50 (Average IC50 of compounds in hTHP-1 assay)
Method in brief: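 IL-1β release was read by HTRF on supernatants of 50,000 PMA-primed (20 ng/ml, 16-18 h) THP-1 cells/well in 2% FBS medium. Cells saw compound for 1 h (11-point titration from 100 μM, 0.37% DMSO) before a 2 h gramicidin (5 μM) challenge.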

IC50	SMILES
> 30 µM	CCc1cc2c(c(C(C)C)c1CC(=O)N=S(N)(=O)c1cc(C(C)(C)O)cs1)COC2 (single isomer, unassigned) [Example 296, (S) or (R)-N-(amino(4-(2-hydroxypropan-2-yl)thiophen-2-yl)(oxo)-λ^6-sulfaneylidene)-2-(6-ethyl-4-isopropyl-1,3-dihydroisobenzofuran-5-yl)acetamide]
> 30 µM	CC(C)c1cc2c(c(C(C)C)c1CC(=O)N=S(N)(=O)c1ccc(C(C)(C)O)cc1)COC2 (single isomer, unassigned) [Example 302, (S) or (R)-N-(amino(4-(2-hydroxypropan-2-yl)phenyl)(oxo)-λ^6-sulfaneylidene)-2-(4,6-diisopropyl-1,3-dihydroisobenzofuran-5-yl)acetamide]
> 30 µM	CC(C)c1cc2c(c(C(C)C)c1CC(=O)N=S(N)(=O)c1cccc(C(C)(C)O)c1)COC2 (single isomer, unassigned) [Example 304, (S) or (R)-N-(amino(3-(2-hydroxypropan-2-yl)phenyl)(oxo)-λ^6-sulfaneylidene)-2-(4,6-diisopropyl-1,3-dihydroisobenzofuran-5-yl)acetamide]
> 30 µM	CC(C)c1cc(C(F)F)nc(C(C)C)c1CC(=O)N=S(N)(=O)c1sc(CN(C)C)cc1F (single isomer, unassigned) [Example 305, (S) or (R)-N-(amino(5-((dimethylamino)methyl)-3-fluorothiophen-2-yl) (oxo)-λ^6-sulfaneylidene)-2-(6-(difluoromethyl)-2,4-diisopropylpyridin-3-yl)acetamide]
> 30 µM	CC(C)c1cc2c(c(C(C)C)c1CC(=O)N=S(N)(=O)c1sc(CN(C)C)cc1F)COC2 (single isomer, unassigned) [Example 308, (S) or (R)-N-(amino(5-((dimethylamino)methyl)-3-fluorothiophen-2-yl)(oxo)-λ^6-sulfaneylidene)-2-(4,6-diisopropyl-1,3-dihydroisobenzofuran-5-yl)acetamide]
> 30 µM	CC(C)c1cc2c(c(C(C)C)c1CC(=O)N=S(N)(=O)c1cnn3c1OCCC3)COC2 (single isomer, unassigned) [Example 309, (S) or (R)-N-(amino (6,7-dihydro-5H-pyrazolo[5,1-b][1,3]oxazin-3-yl)(oxo)-λ^6-sulfaneylidene)-2-(4,6-diisopropyl-1,3-dihydroisobenzofuran-5-yl)acetamide]

same assay, conditions: Homo sapiens, THP-1, Table B1; 2% fetal bovine serum; class symbols; read-out: hTHP-1 IC50 (Average IC50 of compounds in hTHP-1 assay)

IC50	SMILES
0.2 to 1 µM	CCc1cc2c(c(C(C)C)c1CC(=O)N=S(N)(=O)c1cc(C(C)(C)O)cs1)COC2 (single isomer, unassigned) [Example 295, (R) or (S)-N-(amino(4-(2-hydroxypropan-2-yl)thiophen-2-yl)(oxo)-λ^6-sulfaneylidene)-2-(6-ethyl-4-isopropyl-1,3-dihydroisobenzofuran-5-yl)acetamide]
1 to 5 µM	CC(C)c1cc2c(c(C(C)C)c1CC(=O)N=S(N)(=O)c1ccc(C(C)(C)O)cc1)COC2 (single isomer, unassigned) [Example 301, (R) or (S)-N-(amino(4-(2-hydroxypropan-2-yl)phenyl)(oxo)-λ^6-sulfaneylidene)-2-(4,6-diisopropyl-1,3-dihydroisobenzofuran-5-yl)acetamide]
1 to 5 µM	CC(C)c1cc2c(c(C(C)C)c1CC(=O)N=S(N)(=O)c1cccc(C(C)(C)O)c1)COC2 (single isomer, unassigned) [Example 303, (R) or (S)-N-(amino(3-(2-hydroxypropan-2-yl)phenyl)(oxo)-λ^6-sulfaneylidene)-2-(4,6-diisopropyl-1,3-dihydroisobenzofuran-5-yl)acetamide]
0.2 to 1 µM	CC(C)c1cc(C(F)F)nc(C(C)C)c1CC(=O)N=S(N)(=O)c1sc(CN(C)C)cc1F (single isomer, unassigned) [Example 306, (R) or (S)-N-(amino(5-((dimethylamino)methyl)-3-fluorothiophen-2-yl)(oxo)-λ^6-sulfaneylidene)-2-(6-(difluoromethyl)-2,4-diisopropylpyridin-3-yl)acetamide]
0.2 to 1 µM	CC(C)c1cc2c(c(C(C)C)c1CC(=O)N=S(N)(=O)c1sc(CN(C)C)cc1F)COC2 (single isomer, unassigned) [Example 307, (R) or (S)-N-(amino(5-((dimethylamino)methyl)-3-fluorothiophen-2-yl)(oxo)-λ^6-sulfaneylidene)-2-(4,6-diisopropyl-1,3-dihydroisobenzofuran-5-yl)acetamide]
1 to 5 µM	CC(C)c1cc2c(c(C(C)C)c1CC(=O)N=S(N)(=O)c1cnn3c1OCCC3)COC2 (single isomer, unassigned) [Example 310, (R) or (S)-N-(amino (6,7-dihydro-5H-pyrazolo[5,1-b][1,3]oxazin-3-yl)(oxo)-λ^6-sulfaneylidene)-2-(4,6-diisopropyl-1,3-dihydroisobenzofuran-5-yl)acetamide]

same assay, conditions: Table B1; 2% fetal bovine serum; class symbols; read-out: hTHP-1 IC50 (Average IC50 of compounds in hTHP-1 assay)

IC50	SMILES
1 to 5 µM	CCc1cc2c(c(C(C)C)c1CC(=O)N=S(N)(=O)c1sc(C(C)(C)O)cc1F)COC2 (single isomer, unassigned) [Example 297, (R) or (S)-N-(amino (3-fluoro-5-(2-hydroxypropan-2-yl)thiophen-2-yl)(oxo)-λ^6-sulfaneylidene)-2-(6-ethyl-4-isopropyl-1,3-dihydroisobenzofuran-5-yl)acetamide]
5 to 30 µM	CCc1cc2c(c(C(C)C)c1CC(=O)N=S(N)(=O)c1sc(C(C)(C)O)cc1F)COC2 (single isomer, unassigned) [Example 298, (S) or (R)-N-(amino(3-fluoro-5-(2-hydroxypropan-2-yl)thiophen-2-yl)(oxo)-λ^6-sulfaneylidene)-2-(6-ethyl-4-isopropyl-1,3-dihydroisobenzofuran-5-yl)acetamide]
5 to 30 µM	CCc1c2c(cc(C(C)C)c1CC(=O)N=S(N)(=O)c1sc(C(C)(C)O)cc1F)COC2 (single isomer, unassigned) [Example 299, (S) or (R)-N-(amino (3-fluoro-5-(2-hydroxypropan-2-yl)thiophen-2-yl)(oxo)-λ^6-sulfaneylidene)-2-(4-ethyl-6-isopropyl-1,3-dihydroisobenzofuran-5-yl)acetamide]
0.2 to 1 µM	CCc1c2c(cc(C(C)C)c1CC(=O)N=S(N)(=O)c1sc(C(C)(C)O)cc1F)COC2 (single isomer, unassigned) [Example 300, (R) or (S)-N-(amino (3-fluoro-5-(2-hydroxypropan-2-yl)thiophen-2-yl)(oxo)-λ^6-sulfaneylidene)-2-(4-ethyl-6-isopropyl-1,3-dihydroisobenzofuran-5-yl)acetamide]
5 to 30 µM	CC(C)c1ccc(F)c(C(C)C)c1CC(=O)N=S(N)(=O)c1cnn2c1OCCC2 (single isomer, unassigned) [Example 311, (S) or (R)-N-(amino (6,7-dihydro-5H-pyrazolo[5,1-b][1,3]oxazin-3-yl)(oxo)-λ^6-sulfaneylidene)-2-(3-fluoro-2,6-diisopropylphenyl) acetamide]
0.2 to 1 µM	CC(C)c1ccc(F)c(C(C)C)c1CC(=O)N=S(N)(=O)c1cnn2c1OCCC2 (single isomer, unassigned) [Example 312, (R) or (S)-N-(amino (6,7-dihydro-5H-pyrazolo[5,1-b][1,3]oxazin-3-yl)(oxo)-λ^6-sulfaneylidene)-2-(3-fluoro-2,6-diisopropylphenyl) acetamide]
